49 molecules from ChEMBL document CHEMBL1140694, “Identification of new functional inhibitors of acid sphingomyelinase using a structure-property-activity relation model” (J Med Chem, 2008) can be followed below.

A word on the logP: it is the decadic logarithm of the partition coefficient of the neutral form, usually between octanol and water. As usually defined, the pKa is the pH at which an ionisable group is half protonated.

Structures are written as SMILES.

A short description of series [1]: Partition coefficient, log P of the compound. In kind it is physicochemical. As to conditions: octanol/water.

Description for physchem: Dissociation constant, pKa of the compound

On to `CN1CCN(C2=Nc3cc(Cl)ccc3Nc3ccccc32)CC1` [CLOZAPINE], for which the log partition coefficient (logP) in series [1] (read-out: LogP) is 3.42. Regarding `N#Cc1ccc2c(c1)N(CCCN1CCC(O)CC1)c1ccccc1S2` [PERICIAZINE], the pKa in the series “physchem” amounted to 8.76. The molecule `COc1ccc2c(c1)[nH]c1c(C)nccc12` [HARMINE] came in with a pKa in the series “physchem” of 7.5.

As to `COc1ccc(CN(CCN(C)C)c2ccccn2)cc1` [PYRILAMINE], in “physchem”, the pKa came to 8.92.

Regarding `c1ccc(CN(CC2=NCCN2)c2ccccc2)cc1` [ANTAZOLINE], the logP in series [1] (read-out: LogP) turned out to be 4.24. The molecule further returned a pKa in “physchem” of 10.1. Consider `CC12CC3CC(C)(C1)CC(N)(C3)C2` [MEMANTINE], for which the pKa in “physchem” is 10.4.

In turn, `CCN(CC)CCNC(=O)c1cc(Br)c(N)cc1OC` [BROMOPRIDE] displayed a pKa in “physchem” of 9.35. On the same count and under the same terms, as for `CN(C)CCCN1c2ccccc2Sc2ccccc21` [PROMAZINE], the figure is 9.34; as for `O[C@@](CCN1CCCCC1)(c1ccccc1)C1CCCCC1` [TRIHEXYPHENIDYL], 8.7. Consider `C[C@H]1[C@H]2Cc3ccc(O)cc3[C@]1(C)CCN2CC1CC1` [CYCLAZOCINE], for which the logP in series [1] was 3.31. Moreover, the pKa in “physchem” is 9.38. As to `COc1cccc([C@@]2(O)CCCC[C@@H]2CN(C)C)c1` [TRAMADOL], the pKa in the series “physchem” turned out to be 9.37. As to `CC(NCCC(c1ccccc1)c1ccccc1)c1ccccc1` (stereo not given) [FENDILINE], the lipophilicity (logP) in series [1] (read-out: LogP) is 4.89. This molecule yielded a pKa in “physchem” of 9.04. `COCC(=O)O[C@]1(CCN(C)CCCc2nc3ccccc3[nH]2)CCc2cc(F)ccc2[C@@H]1C(C)C` [MIBEFRADIL] came in with a logP in series [1] of 3.86. Regarding `Cc1nc2sccn2c(=O)c1CCN1CCC(=C(c2ccc(F)cc2)c2ccc(F)cc2)CC1` [RITANSERIN], in “physchem”, the pKa turned out to be 8.2. Take `COC(=O)[C@H]1[C@H]2C[C@@H]3c4[nH]c5cc(OC)ccc5c4CCN3C[C@H]2C[C@@H](OC(=O)c2cc(OC)c(OC)c(OC)c2)[C@@H]1OC` [RESERPINE]: the lipophilicity (logP) in series [1] (read-out: LogP) was found to be 3.72. The same molecule returned a pKa in “physchem” of 6.6. With `O=C(CCCN1CCC(O)(c2ccc(Cl)cc2)CC1)c1ccc(F)cc1` [HALOPERIDOL], in series [1] (read-out: LogP), the logP was found to be 3.23.

With `C(=C\c1ccccc1)/CN1CCN(C(c2ccccc2)c2ccccc2)CC1` [CINNARIZINE], the pKa in the series “physchem” came to 7.47. Consider `CN(C)CC/C=C1\c2ccccc2COc2ccccc21` [DOXEPIN], for which the lipophilicity (logP) in series [1] (read-out: LogP) turned out to be 4.01. In “physchem”, `NC(=O)C1(N2CCCCC2)CCN(CCCC(=O)c2ccc(F)cc2)CC1` [PIPAMPERONE] showed a pKa of 8.28. Same read-out and setting: as for `CN1CCC(OC(c2ccccc2)c2ccccc2)CC1`, the figure is 8.9. As to `CCOC(=O)c1cncn1[C@H](C)c1ccccc1` [ETOMIDATE], the logP in series [1] (read-out: LogP) is 3.05. In the series “physchem”, this molecule gave a pKa of 4.5. Take `CN1CCC(=C2c3ccccc3C=Cc3ccccc32)CC1` [CYPROHEPTADINE]: the pKa in the series “physchem” worked out at 8.87.

`COc1cc(N)c(Cl)cc1C(=O)NC1CCN(Cc2ccccc2)CC1` [CLEBOPRIDE]: the logP in series [1] (read-out: LogP) amounted to 2.72. The molecule further gave a pKa in the series “physchem” of 8.59. `NCCc1cc(O)c(O)cc1O` [OXIDOPAMINE] showed a pKa in the series “physchem” of 10.3. `CN(C)CCCN1c2ccccc2Sc2ccc(Cl)cc21` [CHLORPROMAZINE]: the logP in series [1] (read-out: LogP) was 5.19. For `CN(C)CC/C=C1/c2ccccc2Sc2ccc(Cl)cc21` [CHLORPROTHIXENE], in series [1] (read-out: LogP), the logP was 5.18. This molecule had a pKa in “physchem” of 8.84.

Regarding `O=C1NCN(c2ccccc2)C12CCN(CCCC(c1ccc(F)cc1)c1ccc(F)cc1)CC2`, the logP in series [1] (read-out: LogP) came to 5.83. The pKa in “physchem” came out at 8.66. `CC(C)(C)c1ccc(C(O)CCCN2CCC(C(O)(c3ccccc3)c3ccccc3)CC2)cc1` (stereo not given) [TERFENADINE] came in with a pKa in the series “physchem” of 8.6.

On to `CN(Cc1cc(Br)cc(Br)c1N)C1CCCCC1` [BROMHEXINE], for which the pKa in the series “physchem” is 8.5. `CCCCNc1ccc(C(=O)OCCN(C)C)cc1` [TETRACAINE]: the logP in series [1] (read-out: LogP) amounted to 3.73. In addition, in the series “physchem”, the pKa was 8.39.

Turning to `CCCCOc1cc(C(=O)NCCN(CC)CC)c2ccccc2n1` [DIBUCAINE], in the series “physchem”, the pKa is 8.85. In the case of `COc1ccc(CCN2CCC(Nc3nc4ccccc4n3Cc3ccc(F)cc3)CC2)cc1` [ASTEMIZOLE], the logP in series [1] (read-out: LogP) turned out to be 5.48. In addition, the pKa in “physchem” came to 8.5. `CN[C@H]1CC[C@@H](c2ccc(Cl)c(Cl)c2)c2ccccc21` (single isomer, unassigned) [SERTRALINE]: in series [1] (read-out: LogP), the logP was 4.3. The molecule further registered a pKa in “physchem” of 9.16.

In “physchem”, `Cc1c(-c2ccccc2)oc2c(C(=O)OCCN3CCCCC3)cccc2c1=O` [FLAVOXATE] displayed a pKa of 7.3. On the same count and under the same terms, under `Cc1ccccc1C(OCCN(C)C)c1ccccc1` (stereo not given) [ORPHENADRINE] stands 8.4. Consider `CNCCCC12CCC(c3ccccc31)c1ccccc12` [MAPROTILINE], for which the log partition coefficient (logP) in series [1] (read-out: LogP) stood at 4.5.

Take `O=c1[nH]c2ccccc2n1CCCN1CCC(n2c(=O)[nH]c3cc(Cl)ccc32)CC1` [DOMPERIDONE]: the logP in series [1] (read-out: LogP) stood at 4.05. On to `Fc1ccc(C(c2ccc(F)cc2)N2CCN(C/C=C/c3ccccc3)CC2)cc1` [FLUNARIZINE], for which, in series [1] (read-out: LogP), the logP was found to be 6.42. For the same molecule, the pKa in the series “physchem” was found to be 7.71. On the same counts, the results for `COc1ccc(Cc2nccc3cc(OC)c(OC)cc23)cc1OC` [PAPAVERINE] are 2.93 and 6.25.

Consider `CCN1CCCC1CNC(=O)c1cc(S(N)(=O)=O)ccc1OC` (stereo not given) [SULPIRIDE], for which the logP in series [1] (read-out: LogP) was found to be 0.42. For `Cc1ccc(C(=CCN2CCCC2)c2ccccn2)cc1` [TRIPROLIDINE], in series [1] (read-out: LogP), the lipophilicity (logP) amounted to 3.47. Further, in “physchem”, the pKa is 9.69. On to `CN1CCC(=C2c3ccccc3CC(=O)c3sccc32)CC1` [KETOTIFEN], for which the logP in series [1] (read-out: LogP) stood at 3.56. Further, the pKa in the series “physchem” came to 8.24. In the series “physchem”, `COc1cc(N)c(Cl)cc1C(=O)NC1CCN(CCCOc2ccc(F)cc2)CC1OC` (stereo not given) [CISAPRIDE] gave a pKa of 7.9. For `CC(CN(C)C)CN1c2ccccc2Sc2ccccc21` (stereo not given) [METHYLPROMAZINE], the lipophilicity (logP) in series [1] (read-out: LogP) came to 4.81. In “physchem”, the pKa stood at 9.11.

In the case of `O=c1[nH]c2ccccc2n1C1CCN(CCCC(c2ccc(F)cc2)c2ccc(F)cc2)CC1` [PIMOZIDE], the pKa in the series “physchem” came to 8.63. As for `CNC1(C)C2CCC(C2)C1(C)C` (stereo not given) [MECAMYLAMINE], in “physchem”, the pKa turned out to be 11.2. For `Nc1ncn([C@@H]2O[C@H](CO)[C@@H](O)[C@H]2O)c(=O)n1` [AZACITIDINE], in series [1] (read-out: LogP), the lipophilicity (logP) is -2.17. In “physchem”, `CN1[C@@H]2CC[C@H]1C[C@@H](OC(c1ccccc1)c1ccccc1)C2` [BENZTROPINE] had a pKa of 10.

As to `COc1ccc2c(c1OC)C(=O)O[C@@H]2[C@H]1c2c(cc3c(c2OC)OCO3)CCN1C` [NOSCAPINE], in “physchem”, the pKa turned out to be 6.2.
